# Assay results reported in patent publication US20050171116A1, “Enhancing the efficacy of tubercular drugs” (priority 2004, published 2005).
# Tests used:
# [1] = system: sensitive strains of Mycobacterium Tuberculosis bacilli (MTB); assay: Antibacterial efficacy in LJ medium, in vitro culture; assay type: cell-based
# AFB = assay: Sputum AFB test (Ziehl-Neelson stain) in pulmonary tuberculosis patients; assay type: in vivo, human
# Procedure: Fifty four patients suffering from pulmonary tuberculosis were included in this study. Thirty patients were treated with four anti-tubercular drugs only. Twenty-four patients were treated with four anti-tubercular drugs and antioxidant drugs concomitantly.
# Four antitubercular drugs were given by oral route to all 54 patients in doses and frequency as shown below for a period of 60 days. The dosage regime for the anti-microbial drugs is known in the art as “2EHRZ.” It is an oral daily capsule of rifampicin, a tablet of isoniazid, a tablet of Pyrizinamide, and a tablet of ethambutal.
# Out of the total test population of fifty-four patients, twenty-four patients received, in addition to the above 2EHRZ regime, Factor Alpha tx for 60 days, administered daily, orally.
# In both of the two groups, three sputum samples for each patient were collected and were analyzed for the presence of AFB after 15 days, after 30 days and after sixty days. Analysis was by the Ziehl-Neelson (hot) stain method. The reports were documented as positive for presence of bacilli & negative for absence of bacilli.
# The first group (the control group) received Rifampicin, Isoniazid, Ethambutol and Pyrazinamide in daily oral doses mentioned above, on Out Patient Department (OPD) basis for 60 days. […]
# Escherichia coli = assay: Antibacterial activity in broth, culture growth after 24 hrs; assay type: cell-based
# Staphylococci = assay: as above; assay type: cell-based
# Pseudomonas = assay: as above; assay type: cell-based
structure (smiles),measurement,setting,value
"Cc1c(C)c2c(c(C)c1O)CC[C@@](C)(CCC[C@H](C)CCC[C@H](C)CCCC(C)C)O2 [Factor Alpha tx, α-tocopherol]",antibacterial efficacy,[1],effective
same,effect on sputum negativity of concurrent administration with routine anti tubercular agents,AFB,synergistic effects in augmenting sputum negativity
same,antibacterial activity,Escherichia coli,has antibacterial activity
same,antibacterial activity,Staphylococci,has antibacterial activity
same,antibacterial activity,Pseudomonas,has antibacterial activity
